Assay results taken from publication PMC8447191, “Peptide Amphiphilic-Based Supramolecular Structures with Anti-HIV-1 Activity” (Bioconjugate Chemistry, 2021).
*1 amine or outer side, *2 acyl side, *3 side chain or, on linkers, in order; H or OH if unused. Where a SMILES comes first, the peptide text is derived from it. Side-chain parts run from the residue outwards. [ ]: non-standard residue; d: D form. The star is where a group is joined. PEG28 = NCCOCCOCCOCCOCCOCCOCCOCCOCCOCCOCCOCCOCCOCCOCCOCCOCCOCCOCCOCCOCCOCCOCCOCCOCCOCCOCCOCCOCCC(=O)O; X2 = CC(C)CCC[C@@H](C)[C@H]1CC[C@H]2[C@@H]3CC=C4C[C@@H](OC(=O)C*)CC[C@]4(C)[C@H]3CC[C@]12C; N(octadecyl)2 = CCCCCCCCCCCCCCCCCCN(CCCCCCCCCCCCCCCCCC)*; NHOctadecyl = CCCCCCCCCCCCCCCCCCN*; PEG4 = NCCOCCOCCOCCOCCC(=O)O; Suc = O=C(CCC(=O)[*:2])[*:1]

Experiments:
MTT cytotoxicity assay = type: cell-based; conditions: human, HeLa-env cells, PAs coassembled with 5% FAM, 40-2.3 μM, absorbance 560 nm
Description: The metabolic activity of the cell line, related to the cytotoxic effect of the compounds to be tested, is measured after 24 h using the MTT assay. This assay is based on the metabolic reduction of 3-(4,5-dimethylthiazol-2-yl)-2,5-diphenyl-2H-tetrazolium bromide (MTT), carried out by the mitochondrial enzyme succinate dehydrogenase, in a colored compound of blue color (formazan) that can be monitored by absorbance spectroscopy at 560 nm, allowing determination of the mitochondrial functionality of the treated cells.
The HeLa-env cell line is seeded in 96-well plates with an initial density of 15,000 cells per well in 100 μL of culture medium (Dulbecco’s modified Eagle’s medium, DMEM, with 10% FBS added) and incubated for 24 h at 37 °C and 5% CO2 to allow their adhesion. The cell monolayers are washed with PBS, and then 100 μL of PAs formulations (peptide amphiphiles coassembled with 5% FAM) are added in a concentration range from 40 μM to 2.3 μM. The plates are kept in incubation for further 24 h.
At the end of the incubation time, the cells are incubated for 3 h with 1 mg/mL of MTT, dissolved in culture medium without FBS, to allow the formation of formazan crystals. Subsequently, 100 μL of DMSO are added to wells, stirring the plates for 30 min at room temperature to facilitate the complete dissolution of the crystals. Finally, the absorbance at 560 nm is measured in a microplate reader.
The results are expressed as relative percentage between absorbance of PA formulations against absorbance of its DMSO controls and CC50 and CC25 values are taken from dose–response curves.

[1] = Visual stability and aspect of POPC vesicles mixed with PAs (SAXS samples); type: physicochemical; conditions: POPC 20 mM + 2 mM PA, 0.5% DMSO
Description: In Figure 5A,B, we show the spectra corresponding to POPC 20 mM and POPC 20 mM + 2 mM PAs (all of them in the presence of 0.5% DMSO). The band centered at 1.2 nm^–1 and the secondary band at 3.2 nm^–1 were typical of unilamellar vesicles.[35]
The incorporation of PAs had some distinct consequences. The first and more obvious one is the distinction between stable and unstable systems.

HIV-1BaL = type: cell-based; conditions: HIV-1BaL, TZM-bl cells; peptide 10-0.00061 μM for 1 h at 37 °C before virus; luciferase after 48 h; sigmoid fit; mean of triplicates
Description: HIV-1BaL[52] was provided by the NIH AIDS Research & Reference Reagent Program (http://www.aidsreagent.org/). Viral stock was prepared by passage through activated PBMCs[53] for 11 days.
Luciferase-reporter HeLa cells stably transfected to express CD4 and CCR5; TZM-bl cells[54]−[56] were grown in Dulbecco’s Minimal Essential Medium (DMEM) (Sigma-Aldrich, Inc., St. Louis, MO) containing 10% fetal calf serum (FCS), 2 mM L-glutamine, and antibiotics (100 U of penicillin/mL, 100 μg of streptomycin/mL) at 37 °C in an atmosphere containing 5% CO2.
All inhibition assays in cellular and tissue explants models were performed using a standardized amount of virus culture supernatant normalized for infectivity. TZM-bl cells were incubated with serial dilutions of peptides (from 10 μM to 0.00061 μM) for 1 h at 37 °C, prior to challenge with HIV-1BaL. Luciferase expression (r.l.u. values) was determined after 48 h. Alternatively, tissue explants were incubated with serial dilutions of peptide (from 100 μM to 0.1 μM) for 1 h before virus (10^4 TCID50/mL) was added for 2 h. Explants were then washed four times with PBS to remove unbound virus and drug. Colorectal explants were then transferred onto gelfoam rafts (Welbeck Pharmaceuticals, UK) and cultured for 15 days as described previously[57] […]. Explants were cultured for up to 15 days in the absence of peptide. Approximately 50% of the supernatants were harvested every 2–3 days and explants were re-fed with fresh media. The extent of viral replication in tissue explants was determined by measuring the p24 antigen concentration in supernatants (INNOTEST HIV antigen mAb; Fujirebio Europe, Belgium). The extent of inhibition by each peptide was calculated. The percentage of inhibition was normalized relative to the r.l.u, for TZM-bl cells, or p24, for tissue explants, values obtained for cells or explants cultured in the absence of virus (100% inhibition) and for cells or explants infected with virus in the absence of peptide (0% inhibition). Data are the mean (±SEM) of triplicates. When a dose–response curve was obtained, IC50 and, if possible, IC95 values were calculated from sigmoid curve fits (GraphPad Prism). For all curves, R^2 is >0.7.

[2] = set-up: method as in 2 sources, ref 31, 32 = [31]; doi:10.1007/BF02682570; Schick M. J. ( 1966 ) Micelle formation in mixtures of nonionic and cationic detergents . J. Am. Oil Chem. Soc. 43 , 681 – 682 . 10.1007/BF02682570 . || [32]; doi:10.1016/0021-9797(70)90007-X; Barry B. W.; Morrison J. C.; Russell G. F. ( 1970 ) Prediction of the critical micelle concentration of mixtures of alkyltrimethylammonium salts . J. Colloid Interface Sci. 33 , 554 – 561 . 10.1016/ ||| ref 33, 34 = [33]; PMID 17658541; doi:10.1016/j.jcis.2007.06.010; Rodríguez J. L.; Sierra M. B.; Messina P. V.; Morini M. A.; Schulz P. C.; del Burgo P.; Junquera E.; Rodríguez A.; Aicart E. ( 2007 ) Surface and bulk properties of aqueous decyltrimethylammon || [34]; PMID 25356774; doi:10.1039/C4SM01575D; Pucci C.; Pérez L.; La Mesa C.; Pons R. ( 2014 ) Characterization and stability of catanionic vesicles formed by pseudo-tetraalkyl surfactant mixtures . Soft Matter 10 , 9657 – 9667 . 10.1039/C4SM0; conditions: cited from earlier work

Compound	CC50 at 24 h (MTT cytotoxicity assay)	stability / aspect of the sample [1]	IC50 (HIV-1BaL)	CMC [2]
CCCCCCCCCCCCCCCCCCNC(=O)CCC(=O)NCCOCCOCCOCCOCCOCCOCCOCCOCCOCCOCCOCCOCCOCCOCCOCCOCCOCCOCCOCCOCCOCCOCCOCCOCCOCCOCCOCCOCCC(=O)NCCCC[C@H](NC(=O)[C@H](Cc1c[nH]c2ccccc12)NC(=O)[C@H](CC(C)C)NC(=O)[C@H](Cc1ccc(O)cc1)NC(=O)[C@H](CCC(=O)O)NC(=O)[C@H](CC(C)C)NC(=O)[C@@H](NC(=O)[C@@H](N)Cc1c[nH]c2ccccc12)[C@@H](C)CC)C(=O)N[C@H](C(=O)N1CCC[C@H]1C(=O)N[C@@H](Cc1ccccc1)C(=O)N[C@@H](CC(=O)O)C(=O)N[C@@H](Cc1ccccc1)C(=O)N[C@@H](Cc1c[nH]c2ccccc12)C(=O)N[C@@H](CCCNC(=N)N)C(=O)NCC(=O)N[C@H](C(=O)N[C@H](C(N)=O)[C@@H](C)CC)C(C)C)C(C)C [K-PAmonoalkyl] (H-WILEYLWK([PEG28-Suc-NHOctadecyl])VPFDFWRGVI-NH2)	23000 nM	milky	370 nM	–
CC[C@H](C)[C@H](NC(=O)[C@@H](NC(=O)CNC(=O)[C@H](CCCNC(=N)N)NC(=O)[C@H](Cc1c[nH]c2ccccc12)NC(=O)[C@H](Cc1ccccc1)NC(=O)[C@H](CC(=O)O)NC(=O)[C@H](Cc1ccccc1)NC(=O)[C@@H]1CCCN1C(=O)[C@@H](NC(=O)[C@H](CCCCN)NC(=O)[C@H](Cc1c[nH]c2ccccc12)NC(=O)[C@H](CC(C)C)NC(=O)[C@H](Cc1ccc(O)cc1)NC(=O)[C@H](CCC(=O)O)NC(=O)[C@H](CC(C)C)NC(=O)[C@@H](NC(=O)[C@H](Cc1c[nH]c2ccccc12)NC(=O)CCOCCOCCOCCOCCOCCOCCOCCOCCOCCOCCOCCOCCOCCOCCOCCOCCOCCOCCOCCOCCOCCOCCOCCOCCOCCOCCOCCOCCNC(=O)[C@@H](N)CSCC(=O)O[C@H]1CC[C@@]2(C)C(=CC[C@H]3[C@@H]4CC[C@H]([C@H](C)CCCC(C)C)[C@@]4(C)CC[C@@H]32)C1)[C@@H](C)CC)C(C)C)C(C)C)C(N)=O [N-PAchol] (H-C(X2)[PEG28]WILEYLWKVPFDFWRGVI-NH2)	> 40000 nM	milky	120 nM	–
CCCCCCCCCCCCCCCCCCN(CCCCCCCCCCCCCCCCCC)C(=O)CCC(=O)NCCOCCOCCOCCOCCOCCOCCOCCOCCOCCOCCOCCOCCOCCOCCOCCOCCOCCOCCOCCOCCOCCOCCOCCOCCOCCOCCOCCOCCC(=O)N[C@@H](Cc1c[nH]c2ccccc12)C(=O)N[C@H](C(=O)N[C@@H](CC(C)C)C(=O)N[C@@H](CCC(=O)O)C(=O)N[C@@H](Cc1ccc(O)cc1)C(=O)N[C@@H](CC(C)C)C(=O)N[C@@H](Cc1c[nH]c2ccccc12)C(=O)N[C@@H](CCCCN)C(=O)N[C@H](C(=O)N1CCC[C@H]1C(=O)N[C@@H](Cc1ccccc1)C(=O)N[C@@H](CC(=O)O)C(=O)N[C@@H](Cc1ccccc1)C(=O)N[C@@H](Cc1c[nH]c2ccccc12)C(=O)N[C@@H](CCCNC(=N)N)C(=O)NCC(=O)N[C@H](C(=O)N[C@H](C(N)=O)[C@@H](C)CC)C(C)C)C(C)C)[C@@H](C)CC [N-PAdialkyl] ({N(octadecyl)2-Suc-PEG28}-WILEYLWKVPFDFWRGVI-NH2)	> 40000 nM	precipitated rather fast and made compact flocks	150 nM	–
CCCCCCCCCCCCCCCCCCNC(=O)CCC(=O)NCCOCCOCCOCCOCCC(=O)N[C@@H](Cc1c[nH]c2ccccc12)C(=O)N[C@H](C(=O)N[C@@H](CC(C)C)C(=O)N[C@@H](CCC(=O)O)C(=O)N[C@@H](Cc1ccc(O)cc1)C(=O)N[C@@H](CC(C)C)C(=O)N[C@@H](Cc1c[nH]c2ccccc12)C(=O)N[C@@H](CCCCN)C(=O)N[C@H](C(=O)N1CCC[C@H]1C(=O)N[C@@H](Cc1ccccc1)C(=O)N[C@@H](CC(=O)O)C(=O)N[C@@H](Cc1ccccc1)C(=O)N[C@@H](Cc1c[nH]c2ccccc12)C(=O)N[C@@H](CCCNC(=N)N)C(=O)NCC(=O)N[C@H](C(=O)N[C@H](C(N)=O)[C@@H](C)CC)C(C)C)C(C)C)[C@@H](C)CC [PA1PEG3] ({NHOctadecyl-Suc-PEG4}-WILEYLWKVPFDFWRGVI-NH2)	> 40000 nM	–	230 nM	–
CCCCCCCCCCCCCCCCCCN(CCCCCCCCCCCCCCCCCC)C(=O)CCC(=O)NCCOCCOCCOCCOCCC(=O)N[C@@H](Cc1c[nH]c2ccccc12)C(=O)N[C@H](C(=O)N[C@@H](CC(C)C)C(=O)N[C@@H](CCC(=O)O)C(=O)N[C@@H](Cc1ccc(O)cc1)C(=O)N[C@@H](CC(C)C)C(=O)N[C@@H](Cc1c[nH]c2ccccc12)C(=O)N[C@@H](CCCCN)C(=O)N[C@H](C(=O)N1CCC[C@H]1C(=O)N[C@@H](Cc1ccccc1)C(=O)N[C@@H](CC(=O)O)C(=O)N[C@@H](Cc1ccccc1)C(=O)N[C@@H](Cc1c[nH]c2ccccc12)C(=O)N[C@@H](CCCNC(=N)N)C(=O)NCC(=O)N[C@H](C(=O)N[C@H](C(N)=O)[C@@H](C)CC)C(C)C)C(C)C)[C@@H](C)CC [PA2PEG3] ({N(octadecyl)2-Suc-PEG4}-WILEYLWKVPFDFWRGVI-NH2)	> 40000 nM	–	–	–
CC[C@H](C)[C@H](NC(=O)[C@@H](NC(=O)CNC(=O)[C@H](CCCNC(=N)N)NC(=O)[C@H](Cc1c[nH]c2ccccc12)NC(=O)[C@H](Cc1ccccc1)NC(=O)[C@H](CC(=O)O)NC(=O)[C@H](Cc1ccccc1)NC(=O)[C@@H]1CCCN1C(=O)[C@@H](NC(=O)[C@H](CCCCN)NC(=O)[C@H](Cc1c[nH]c2ccccc12)NC(=O)[C@H](CC(C)C)NC(=O)[C@H](Cc1ccc(O)cc1)NC(=O)[C@H](CCC(=O)O)NC(=O)[C@H](CC(C)C)NC(=O)[C@@H](NC(=O)[C@H](Cc1c[nH]c2ccccc12)NC(=O)CCOCCOCCOCCOCCNC(=O)[C@@H](N)CSCC(=O)O[C@H]1CC[C@@]2(C)C(=CC[C@H]3[C@@H]4CC[C@H]([C@H](C)CCCC(C)C)[C@@]4(C)CC[C@@H]32)C1)[C@@H](C)CC)C(C)C)C(C)C)C(N)=O [PA3PEG3] (H-C(X2)[PEG4]WILEYLWKVPFDFWRGVI-NH2)	> 40000 nM	–	2010 nM	–
CCCCCCCCCC[N+](C)(C)C.[Br-] [decyl trimethyl ammonium bromide]	–	–	–	66.8 mM
CCCCCCCCCC[N+](C)(C)CCCCCCCCCC.[Br-] [didecyl dimethyl ammonium bromide]	–	–	–	1.4 mM
CCCCCCCCCCCC[N+](C)(C)C.[Br-] [dodecyl trimethyl ammonium bromide]	–	–	–	14.5 mM
CCCCCCCCCCCCCCCC[N+](C)(C)C [hexadecyl trimethyl ammonium bromide]	–	–	–	0.8 mM
